Laboratory results taken from patent US20200361779A1, “COMPOSITION INCLUDING I2SCN- IONS AND/OR I(SCN)2- IONS” (priority 2015, published 2020).
Entries after “also recorded” stand apart in the source; their conditions may differ.

Test: Degradation of the ions in the concomitant presence of LP (NMR signal at 49 ppm)
Format: physicochemical
Details: for signal at 49 ppm / wanted ions in concomitant presence of LP: after 48 h
Protocol: During the production of the wanted ions, if one keeps the enzyme in the mixture, one observes a gradual loss of the wanted ions, and, after 48 h, a total loss of the wanted ions due to enzymatic oxidation of the wanted ions, as illustrated in FIG. 19 in which one observes a decrease in the intensity of the signal as a function of the time of presence of the enzyme in the matrix (solution).

In the case of I2SCN^− and/or I(SCN)2^− ions, the “signal at 49 ppm in concomitant presence of LP” value (3 h of incubation) is reported as “pronounced decrease of the signal”, the “signal at 49 ppm in concomitant presence of LP” value (after 1 h) is reported as “slight decrease” and the “signal at 49 ppm / wanted ions in concomitant presence of LP” value is reported as “total disappearance of the signal; also recorded: complete disappearance”. For the same substance, the “signal at 49 ppm / wanted ions in concomitant presence of LP” value (listed as wanted ions) was “total loss”.
